Values joined by “and” are separate entries in the source; they are usually repeats but may differ in a detail not shown here. Identical values can stand only once. Inconclusive results and toxic doses are left out. Cut-off read from the data, not from the text of the source: active = T/C of 150% or more; inactive = T/C below 125%.
System: L1210 leukemia ip in BDF1 mice, survival T/C
Test: NCI In Vivo Anticancer Drug Screen. Data for tumor model L1210 Leukemia (intraperitoneal) in B6D2F1 (BDF1) mice
Details: endpoint: mean survival time, higher = longer survival
How it was run: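 Ratio derived from survival: compound-dosed mice over vehicle-dosed mice, all bearing a transplantable tumor.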

[1] = dose: 100.0 mg/kg/injection, schedule: Q01DX001 (ip), vehicle: saline
[2] = dose: 100.0 mg/kg/injection, schedule: Q04DX003 (ip), vehicle: saline
[3] = dose: 200.0 mg/kg/injection, schedule: Q01DX001 (ip), vehicle: saline
[4] = dose: 200.0 mg/kg/injection, schedule: Q04DX003 (ip), vehicle: saline
[5] = dose: 400.0 mg/kg/injection, schedule: Q01DX001 (ip), vehicle: saline
[6] = dose: 400.0 mg/kg/injection, schedule: Q04DX003 (ip), vehicle: saline
[7] = dose: 100.0 mg/kg/injection, schedule: Q01DX009 (ip), vehicle: saline
[8] = dose: 200.0 mg/kg/injection, schedule: Q01DX009 (ip), vehicle: saline
[9] = dose: 100.0 mg/kg/injection, schedule: Q01DX009 (ip), vehicle: saline with Tween-80
[10] = dose: 100.0 mg/kg/injection, schedule: Q01DX001 (ip), vehicle: carboxymethylcellulose (CMC)
[11] = dose: 100.0 mg/kg/injection, schedule: Q01DX009 (ip), vehicle: Klucel (hydroxypropylcellulose) (HPC)
[12] = dose: 100.0 mg/kg/injection, schedule: Q04DX003 (ip), vehicle: Klucel (hydroxypropylcellulose) (HPC)
[13] = dose: 200.0 mg/kg/injection, schedule: Q01DX001 (ip), vehicle: carboxymethylcellulose (CMC)
[14] = dose: 200.0 mg/kg/injection, schedule: Q01DX009 (ip), vehicle: Klucel (hydroxypropylcellulose) (HPC)
[15] = dose: 200.0 mg/kg/injection, schedule: Q04DX003 (ip), vehicle: Klucel (hydroxypropylcellulose) (HPC)
[16] = dose: 400.0 mg/kg/injection, schedule: Q01DX009 (ip), vehicle: Klucel (hydroxypropylcellulose) (HPC)
[17] = dose: 400.0 mg/kg/injection, schedule: Q04DX003 (ip), vehicle: Klucel (hydroxypropylcellulose) (HPC)
[18] = dose: 100.0 mg/kg/injection, schedule: Q01DX001 (ip), vehicle: other
[19] = dose: 200.0 mg/kg/injection, schedule: Q01DX001 (ip), vehicle: other
[20] = dose: 100.0 mg/kg/injection, schedule: Q04DX002 (ip), vehicle: Klucel (hydroxypropylcellulose) (HPC)
[21] = dose: 200.0 mg/kg/injection, schedule: Q04DX002 (ip), vehicle: Klucel (hydroxypropylcellulose) (HPC)
[22] = dose: 400.0 mg/kg/injection, schedule: Q04DX002 (ip), vehicle: Klucel (hydroxypropylcellulose) (HPC)
[23] = dose: 100.0 mg/kg/injection, schedule: Q04DX003 (ip), vehicle: saline with Tween-80
[24] = dose: 200.0 mg/kg/injection, schedule: Q01DX009 (ip), vehicle: saline with Tween-80
[25] = dose: 200.0 mg/kg/injection, schedule: Q04DX003 (ip), vehicle: saline with Tween-80
[26] = dose: 400.0 mg/kg/injection, schedule: Q01DX009 (ip), vehicle: saline with Tween-80
[27] = dose: 400.0 mg/kg/injection, schedule: Q04DX003 (ip), vehicle: saline with Tween-80

Measured: T/C

CCCCCCCNN=C(N)N
inactive: [1] 98 % of control | [2] 111 % of control | [3] 98 % of control | [4] 95 % of control | [5] 97 % of control | [6] 117 % of control

O=[N+]([O-])CCCl
inactive: dose: 2.5 mg/kg/injection, schedule: Q04DX003 (ip), vehicle: Klucel (hydroxypropylcellulose) (HPC) 104 % of control | dose: 5.0 mg/kg/injection, schedule: Q01DX009 (ip), vehicle: saline 105 % of control | dose: 5.0 mg/kg/injection, schedule: Q04DX003 (ip), vehicle: Klucel (hydroxypropylcellulose) (HPC) 103 % of control | dose: 10.0 mg/kg/injection, schedule: Q01DX009 (ip), vehicle: saline 106 % of control | dose: 10.0 mg/kg/injection, schedule: Q04DX003 (ip), vehicle: Klucel (hydroxypropylcellulose) (HPC) 95 % of control | dose: 20.0 mg/kg/injection, schedule: Q01DX009 (ip), vehicle: saline 117 % of control | dose: 20.0 mg/kg/injection, schedule: Q04DX003 (ip), vehicle: Klucel (hydroxypropylcellulose) (HPC) 89 % of control

CN(CCN1CCCCC1)C(=O)C(c1ccccc1)C1CCCCC1 (stereo not given)
inactive: dose: 75.0 mg/kg/injection, schedule: Q01DX001 (ip), vehicle: saline 98 % of control

COc1ccc(Cl)cc1NS(=O)(=O)c1ccc(Cl)cc1[N+](=O)[O-]
inactive: [7] 96 % of control | [8] 94 % of control | dose: 400.0 mg/kg/injection, schedule: Q01DX009 (ip), vehicle: saline 100 % of control

S=c1[nH]nc(NC2CCCCC2)s1
inactive: dose: 100.0 mg/kg/injection, schedule: Q01DX009 (ip), vehicle: other 91 % of control | [2] 88 % of control | [4] 91 % of control | [6] 86 % of control

COc1ccc(O)c(C=O)c1
inactive: [9] 108 % of control

CC(C)CCS(=O)(=O)OCCCCOS(=O)(=O)CCC(C)C
inactive: dose: 50.0 mg/kg/injection, schedule: Q01DX001 (ip), vehicle: carboxymethylcellulose (CMC) 109 % of control | [10] 104 % of control | [11] 106 % of control | [12] 105 % of control | [13] 101 % of control | [14] 102 % of control | [15] 105 % of control | dose: 400.0 mg/kg/injection, schedule: Q01DX001 (ip), vehicle: carboxymethylcellulose (CMC) 103 % of control | [16] 109 % of control | [17] 106 % of control

Nc1ccn(C2OC(COC(=O)C34CC5CC(CC(C5)C3)C4)C(O)C2O)c(=O)n1 (stereo not given)
active: dose: 50.0 mg/kg/injection, schedule: Q01DX001 (ip), vehicle: other 156 % of control and 170 % of control | [18] 165 % of control and 248 % of control | [19] 213 % of control and 300 % of control

Brc1cccc2ccccc12
inactive: dose: 25.0 mg/kg/injection, schedule: Q01DX009 (ip), vehicle: Klucel (hydroxypropylcellulose) (HPC) 89 % of control | dose: 50.0 mg/kg/injection, schedule: Q01DX009 (ip), vehicle: Klucel (hydroxypropylcellulose) (HPC) 86 % of control | [11] 99 % of control | [20] 112 % of control | [21] 105 % of control | [22] 119 % of control

CC(=S)Nc1ccc2ccccc2c1
inactive: [9] 94 % of control | [23] 101 % of control | [24] 94 % of control | [25] 104 % of control | [26] 109 % of control | [27] 101 % of control

CCn1c(COc2cc(C)cc(C)c2)c(COC(=O)c2cccc(Cl)c2)c2ccccc21
inactive: dose: 50.0 mg/kg/injection, schedule: Q01DX009 (ip), vehicle: saline with Tween-80 96 % of control | [9] 86 % of control | [24] 91 % of control

COc1ccc(CN=C(N)CSS(=O)(=O)O)cc1
inactive: dose: 12.5 mg/kg/injection, schedule: Q04DX002 (ip), vehicle: Klucel (hydroxypropylcellulose) (HPC) 97 % of control | dose: 25.0 mg/kg/injection, schedule: Q04DX002 (ip), vehicle: Klucel (hydroxypropylcellulose) (HPC) 97 % of control

Cc1cc(C)c(CN)cc1C
inactive: dose: 5.0 mg/kg/injection, schedule: Q04DX003 (ip), vehicle: saline with Tween-80 95 % of control | dose: 10.0 mg/kg/injection, schedule: Q04DX003 (ip), vehicle: saline with Tween-80 95 % of control | dose: 20.0 mg/kg/injection, schedule: Q04DX003 (ip), vehicle: saline with Tween-80 95 % of control

Nc1ncnc(N)c1N=O
inactive: dose: 50.0 mg/kg/injection, schedule: Q01DX009 (ip), vehicle: saline 107 % of control | [7] 91 % of control | [8] 101 % of control

NCCSc1ccccc1C(=O)O
inactive: [12] 92 % of control | [15] 112 % of control | [17] 102 % of control

C#CCI
inactive: dose: 37.5 mg/kg/injection, schedule: Q04DX003 (ip), vehicle: Klucel (hydroxypropylcellulose) (HPC) 108 % of control | dose: 75.0 mg/kg/injection, schedule: Q04DX003 (ip), vehicle: Klucel (hydroxypropylcellulose) (HPC) 100 % of control | dose: 150.0 mg/kg/injection, schedule: Q04DX003 (ip), vehicle: Klucel (hydroxypropylcellulose) (HPC) 103 % of control

O=C(c1ccccc1Cl)N(Cc1ccccc1)c1ccccc1
inactive: [11] 102 % of control | [14] 103 % of control | [16] 100 % of control

C=C1C(=O)O[C@@H]2C[C@@H](C)[C@@H]3[C@@H](OC4OC(COC(C)=O)C(O)C(O)C4O)CC(=O)[C@@]3(C)C[C@H]12 (stereo not given in full)
inactive: dose: 6.4 mg/kg/injection, schedule: Q01DX009 (ip), vehicle: saline 101 % of control | dose: 9.6 mg/kg/injection, schedule: Q01DX009 (ip), vehicle: saline 97 % of control | dose: 14.0 mg/kg/injection, schedule: Q01DX009 (ip), vehicle: saline 104 % of control | dose: 22.0 mg/kg/injection, schedule: Q01DX009 (ip), vehicle: saline 98 % of control | [23] 100 % of control | [25] 89 % of control | [27] 94 % of control

CC(=O)NC(C)(SC(c1ccccc1)c1ccccc1)C(=O)O (stereo not given)
inactive: dose: 100.0 mg/kg/injection, schedule: Q01DX001 (ip), vehicle: Klucel (hydroxypropylcellulose) (HPC) 100 % of control | dose: 200.0 mg/kg/injection, schedule: Q01DX001 (ip), vehicle: Klucel (hydroxypropylcellulose) (HPC) 100 % of control | dose: 400.0 mg/kg/injection, schedule: Q01DX001 (ip), vehicle: Klucel (hydroxypropylcellulose) (HPC) 105 % of control

CC1([N+](=O)[O-])COP(=O)(Nc2ccc(F)cc2)OC1 (stereo not given)
inactive: [10] 100 % of control | [13] 94 % of control

O=C(O)c1cc(Cl)cc(I)c1Br
inactive: dose: 75.0 mg/kg/injection, schedule: Q04DX002 (ip), vehicle: Klucel (hydroxypropylcellulose) (HPC) 100 % of control | [20] 94 % of control | dose: 150.0 mg/kg/injection, schedule: Q04DX002 (ip), vehicle: Klucel (hydroxypropylcellulose) (HPC) 96 % of control | [21] 105 % of control | dose: 300.0 mg/kg/injection, schedule: Q04DX002 (ip), vehicle: Klucel (hydroxypropylcellulose) (HPC) 100 % of control | [22] 105 % of control

Cc1ccc(C(C)(C)Cl)cc1O
inactive: [9] 93 % of control | [23] 96 % of control | [24] 93 % of control | [25] 102 % of control | [26] 98 % of control | [27] 102 % of control

COC(=O)C(O)(C#CC(C)C)c1ccccc1 (stereo not given)
inactive: [18] 107 % of control | [19] 100 % of control | dose: 400.0 mg/kg/injection, schedule: Q01DX001 (ip), vehicle: other 94 % of control

Nc1ccc(S(=O)(=O)F)c(Cl)c1
inactive: [1] 102 % of control | [3] 98 % of control | [5] 98 % of control

C=CCOC(=O)Nc1cccc(OC(=O)NC)c1
inactive: [23] 105 % of control | [25] 105 % of control | [27] 100 % of control
